The source of these data is ChEMBL document CHEMBL4425099, “Use of Osmotic Pumps to Establish the Pharmacokinetic-Pharmacodynamic Relationship and Define Desirable Human Performance Characteristics for Aggrecanase Inhibitors” (J Med Chem, 2016).

The nature of data set [1]: Plasma concentration in Lewis rat model of MIA at […], po administered through infusion pump post 3 days MIA induction. The class given is ADME, organism-based.
A short description of data set [2]: Plasma concentration in Lewis rat model of MIA at 6 mg/mL, […] post 3 days MIA induction. Type of data set: ADME, organism-based.
A short description of data set [3]: Plasma concentration in Lewis rat model of MIA at 18 mg/mL, […] post 3 days MIA induction. The class given is ADME, organism-based.
Data set [4] is described as follows: Plasma concentration in Lewis rat model of MIA at 60 mg/mL, […] post 3 days MIA induction. Type of data set: ADME, organism-based.
Data set [5] can be described thus: Ratio of plasma concentration in Lewis rat model of MIA at 60 mg/mL, […] post 3 days MIA induction to IC50 for human ADAMTS5 in presence of rat plasma. The class given is ADME, organism-based. The note with it: in vivo, 72 h.
In data set [6] the test system is Rattus norvegicus. The experiment in a line: Reduction in ADAMTS-4/ADAMTS-5 mediated aggrecan cleavage products in Lewis rat model of MIA assessed as aggrecanase-cleaved fragments at […] administered through infusion pump post 3 days MIA induction measured after 4 hrs of last dosage on day 7 by NITEGE sandwich ELISA. The class given is functional.
Data set [7] relates to Rattus norvegicus. The experiment in a line: Reduction in ADAMTS-4/ADAMTS-5 mediated aggrecan cleavage products in Lewis rat model of MIA assessed as aggrecanase-cleaved fragments at 18 mg/mL administered through infusion pump post 3 days MIA induction measured after 4 hrs of last dosage on day 7 by NITEGE sandwich ELISA. The class given is functional.
Data set [8] is described as follows: Oral bioavailability in rat at 10 mg/kg. Type of data set: ADME, organism-based. Particulars: in vivo.
A short description of data set [9]: Solubility of the compound at pH 2. The class given is physicochemical. The note with it: buffer.
The nature of data set [10]: Solubility of the compound at pH 7.7. The class given is physicochemical. Particulars: buffer.
Data set [11] concerns Rattus norvegicus. The data set can be described thus: Reduction in ADAMTS-4/ADAMTS-5 mediated aggrecan cleavage products in Lewis rat model of MIA assessed as aggrecanase-cleaved fragments at 3 mg/kg, po bid administered post 3 days MIA induction measured after 4 hrs of last dosage on day 7 by NITEGE sandwich ELISA relative to vehicle control. The class given is functional, organism-based.

Data set [12] deals with Rattus norvegicus. The data set can be described thus: Reduction in ADAMTS-4/ADAMTS-5 mediated aggrecan cleavage products in Lewis rat model of MIA assessed as aggrecanase-cleaved fragments at 30 mg/kg, po qd administered post 3 days MIA induction measured after 4 hrs of last dosage on day 7 by NITEGE sandwich ELISA. Type of data set: functional.
Data set [13] in a line: Plasma concentration in Lewis rat model of MIA at 4.3 mg/mL, sc administered through infusion pump post 3 days MIA induction. The class given is ADME, organism-based.
Data set [14] can be described thus: Plasma concentration in Lewis rat model of MIA at 10 mg/mL, sc administered through infusion pump post 3 days MIA induction. The class given is ADME, organism-based.
Data set [15] is described as follows: Ratio of plasma concentration in Lewis rat model of MIA at 1.44 mg/mL, sc administered through infusion pump post 3 days MIA induction to IC50 for human ADAMTS5 in presence of rat plasma. The note with it: in vivo, 72 h. The class given is ADME, organism-based.
Data set [16] is described as follows: Ratio of plasma concentration in Lewis rat model of MIA at 4.3 mg/mL, sc administered through infusion pump post 3 days MIA induction to IC50 for human ADAMTS5 in presence of rat plasma. Type of data set: ADME, organism-based. The note with it: in vivo, 72 h.
Data set [17] can be described thus: Ratio of plasma concentration in Lewis rat model of MIA at 30 mg/mL, sc administered through infusion pump post 3 days MIA induction to IC50 for human ADAMTS5 in presence of rat plasma. The note with it: in vivo, 72 h. Type of data set: ADME, organism-based.
Data set [18] has as its system Rattus norvegicus. The experiment in a line: Reduction in ADAMTS-4/ADAMTS-5 mediated aggrecan cleavage products in Lewis rat model of MIA assessed as aggrecanase-cleaved fragments at 1.44 mg/mL, sc administered through infusion pump post 3 days MIA induction measured after 4 hrs of last dosage on day 7 by NITEGE sandwich ELISA. The class given is functional.
The test system of data set [19] is Rattus norvegicus. The data set can be described thus: Reduction in ADAMTS-4/ADAMTS-5 mediated aggrecan cleavage products in Lewis rat model of MIA assessed as aggrecanase-cleaved fragments at 30 mg/mL, sc administered through infusion pump post 3 days MIA induction measured after 4 hrs of last dosage on day 7 by NITEGE sandwich ELISA. The class given is functional.

Data set [20] can be described thus: Dissociation constant, basic pKa of the compound. The class given is physicochemical.
The nature of data set [21]: Ratio of plasma concentration in Lewis rat model of MIA at 30 mg/kg, po bid administered post 3 days MIA induction measured after 1 hr of last dosage on day 7 to IC50 for human ADAMTS5 in presence of Lewis rat plasma. The note with it: in vivo. The class given is ADME, organism-based.
The nature of data set [22]: Ratio of plasma concentration in Lewis rat model of MIA at 30 mg/kg, po bid administered post 3 days MIA induction measured after 12 hrs of last dosage on day 7 to IC50 for human ADAMTS5 in presence of Lewis rat plasma. The class given is ADME, organism-based. Particulars: in vivo.

Converted amounts (≈) assume the structure as drawn. The source made the active and inactive calls. The calls are words filed in the database; no cut-off is given here.

For the compound `O=C1NC(=O)[C@](CNC(=O)c2cc3cc(C(F)(F)F)ccc3o2)(C2CC2)N1`, the concentration at 72 h in data set [1] turned out to be 200 nM; in [2], 630 nM; in data set [3] it was 2200 nM; in data set [4] it was 2900 nM. In data set [5], the Ratio is given as 46. Moreover, the figures for the “inhibition (INH)” value in the data set on Rattus norvegicus [6] and with Rattus norvegicus [7] were 21% and 56%, respectively. For the same compound, the bioavailability in data set [8] turned out to be 83%. In addition, the figures for the solubility in data set [9] and in data set [10] were 12 µg/mL (≈ 31.5 µM) and 16 µg/mL (≈ 42 µM), respectively. The inhibition result with Rattus norvegicus [11] was “Active”. For the same compound, the inhibition in vivo at 30 mg/kg with Rattus norvegicus [12] stood at 52%.

On to `Cn1ccnc1[C@]1(CNC(=O)c2cc3cc(C(F)(F)F)ccc3o2)NC(=O)NC1=O`, for which the concentration at 72 h in data set [13] was 360 nM; in data set [14], 1100 nM. Further, the Ratio in data set [15] is given as 3.7; in data set [16], 10; in [17], 100; in data set [21], 2000; in [22], 10. Besides, the “inhibition (INH)” value in the data set on Rattus norvegicus [18] was 16%; in the data set with Rattus norvegicus [19] it was 76%. This compound also displayed a pKa in [20] of 3.67.
